No end group written: not given here.
Legend:
[1] = target: T1, Mas receptor (Homo sapiens, UniProt P04201); test: Calcium flux in CHO-K1 cells co-transfected with Mas receptor and Gα16; type: cell-based; details: dose response
T1 construct: expressed in transfected cells; host or cells: CHO-K1 (ATCC-CCL-61), transient co-transfection
T1 sequence (P04201 1-325): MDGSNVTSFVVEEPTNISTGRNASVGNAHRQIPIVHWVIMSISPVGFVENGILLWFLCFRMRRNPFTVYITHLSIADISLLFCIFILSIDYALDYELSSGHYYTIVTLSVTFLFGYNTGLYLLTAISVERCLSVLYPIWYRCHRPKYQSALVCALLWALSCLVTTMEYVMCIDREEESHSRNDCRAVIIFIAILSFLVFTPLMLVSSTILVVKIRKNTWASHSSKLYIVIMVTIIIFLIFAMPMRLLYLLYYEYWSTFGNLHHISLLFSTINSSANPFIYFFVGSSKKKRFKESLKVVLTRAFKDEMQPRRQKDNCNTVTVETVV
Procedure: The assay was carried out in CHO cells were transiently transfected with the GPCR of choice, by utilizing the promiscuous Gα16 to divert signaling to the Gq pathway, thus enabling readout of GPCR activation by testing for Calcium flux as described by Liu et al 2003 (Biomol Screen 8, 39-49).
All the peptides thus obtained were tested for their ability to change calcium flux in CHO—K1 cells (ATCC-CCL-61) transiently co-transfected with an expression vector containing the GPCR of choice and expression vector containing the Gα16 encoding cDNA. Expression constructs containing cDNA clones for MrgX1, MrgX2, Mas or FPRL1 were commercially obtained in one of the following expression vectors: pcDNA3.1, pCMV6, or MO2.
Transient transfections were performed using CHO—K1 cells as host cells. Cells (12 million) were plated into T75 flasks on the day preceding transfection. Cells were transfected with the appropriate GPCR expression vector and with a vector expressing Gα16 using a lipid-based reagent, MTI, according to the manufacturer's recommendation. Cells were transfected for 5 hours, then re-plated into 96-well dishes (60,000 cells per well) and grown overnight.
On the day of the experiment, cells were loaded with Fluo4-NW (Invitrogen) according to the manufacturer's recommendation. Plates were loaded into a FlexStation™ (Molecular Devices) plate reader and fluorescence was monitored. Seventeen seconds following initiation of reading, cells were stimulated with the indicated agonist/compound at final concentration of 1 μM. Each 96 well plate contained cells transfected with one GPCR expression vector and each of the examined peptides was tested in triplicate.
We defined a hit as a peptide which elicited a clear and distinct increase in intracellular calcium that is clearly visible and statistically significant upon examination of the calcium trace for at least two repeats. The criterion for statistical significance was a p-value lower than 0.001 in a t-test comparing the levels of calcium before and after peptide addition.
Based on dose response experiments, EC50 best fit values were calculated by non-linear regression of sigmoidal dose-response curves, using Prism version 4 (GraphPad Software Inc., San Diego, Calif.). The formulae for the sigmoidal dose-response curves was defined as Y=Bottom+(Top−Bottom)/(1+10^ (LogEC50−X)*HillSlope))
The ability of Peptides to change calcium flux was examined in CHO—K1 cells co-transfected with Mas receptor and Gα16.

[2] = system: aortic rings from Wistar rat; test: Vasorelaxant activity in phenylephrine pre-contracted aortic rings
Source text: Male Wistar rats of the age of 13-14 weeks (body weight: 250 to 300 g) were used. The rats were exposed to light-dark cycle of 12 hs (day—06:00 to 18:00; night—18:00 to 06:00) controlled by timer. Rats were killed by decapitation and exsanguination and tissues were rapidly removed.
Rings (3-4 mm) from the descending thoracic aorta, free of adipose and connective tissue, were set up in gassed (95% O2 and 5% CO2) Krebs-Henseleit solution (mmol/L): NaCl 110.8, KCl 5.9, NaHCO3 25.0, MgSO4 1.07, CaCl2 2.49, NaH2PO4 2.33 and glucose 11.51, at 37° C., under a tension of 1.0 g, for 1 hour to equilibrate. The presence of functional endothelium was assessed by the ability of Acetylcholine (1 μM) to induce more than 70% relaxation of vessels pre-contracted with phenylephrine (0.3 μM) (Lemos et al., 2005). When necessary, the endothelium was removed by rubbing the intimal surface with a wooden stick. Mechanical activity, recorded isometrically by a force transducer (Panlab, model number TR1210, Spain), was fed to an amplifier-recorder (Powerlab 4/20, ADInstruments, Inc.) and to a personal computer equipped with an analogue-to-digital converter board (AD16JR; World Precision Instruments, Inc.), using CVMS data acquisition/recording software (World Precision Instruments, Inc.).
The vasorelaxant activity of peptides —P61_S (SEQ ID NO:10), P61 (SEQ ID NO.9)-dimer (P61_D), P33_V (SEQ ID NO:7) and P33 (SEQ ID NO:6)-dimer (P33_D) were measured in vessels (N=5-8) with or without functional endothelium pre-contracted to the same tension level (approximately 1.5 g of tension) induced by submaximal concentrations of phenylephrine (0.01 μM). For comparison, the effect of Ang-(1-7) was also tested (N=4)
P61_S (SEQ ID NO:10), P61 (SEQ ID NO9)-dimer (P61_D), P33_V (SEQ ID NO:7) or P33 (SEQ ID NO:6)-dimer (P33_D) were added in increasing cumulative concentrations (0.0001 to 1 μM) once the response to phenylephrine had stabilized (FIG. 28). In order to verify the participation of endothelium-derived products in the relaxant effect of peptides, experiments were performed in the presence of 100 μM N′-Nitro-L-Arginine Methyl Ester-[L-NAME]—a nonselective inhibitor of nitric oxide synthase. In experiments performed in the presence of L-NAME, vessels were pre-contracted with 0.03 μM of phenylephrine, to achieve the same tension level as the others. L-NAME was added to the bath 20 min prior to the addition of phenylephrine.
Results are presented as mean±SEM. Two-way analysis of variance (ANOVA) with Bonferroni multiple comparison post-test was used to compare concentration response curves obtained in aortic rings. The vasodilator effect of P61_S (SEQ ID NO:10), P61 (SEQ ID N09)-dimer (P61_D), P33_V (SEQ ID NO:7), P33 (SEQ ID NO:6)-dimer (P33_D) and Ang-(1-7) were expressed as percentage decrease in maximal contraction induced by phenylephrine. All statistical analyses were considered significant when p<0.05.

FLGYCIYLNRKRRGDPAFKRRLRD (also: dimer via cysteine; listed as Homo sapiens) [Peptide P61_dimer]
ability to induce calcium flux, P61-related peptides compared [1]: more potent than the monomeric P61 peptides
vasodilator effect in the presence of L-NAME ([2]; 100 μM L-NAME, NO synthase inhibitor): markedly inhibited
vasodilator effect in the absence of functional endothelium ([2]; endothelium-denuded vessels): abolished
Maximal values for the relaxant effect (Emax) ([2]; vessels with endothelium, 0.0001 to 1 μM cumulative, mean±SEM): 20.45±5.11%

Source: US8349801B2, “Peptide ligands for G-protein coupled receptors” (priority 2006, dated 2013)
